Laboratory results as given in ChEMBL document CHEMBL4725437, “P450s under Restriction (PURE) Screen Using HepaRG and Primary Human Hepatocytes for Discovery of Novel HBV Antivirals” (ACS Med Chem Lett, 2020).
Active and inactive are the calls of the source. The calls are words filed in the database; no cut-off is given here.

Legend:
[1] = system: Hepatocyte; test: (§1) Cytotoxicity against human primary hepatocytes infected with HBV assessed as reduction in cell viability at 10 mM treated for 1 hr on day 5 post-infection followed by removal of media and supplemented with fresh media and further incubated for 3 days then followed by treatment for 1 hr on day 8 post-infection followed by removal of media and supplemented with fresh media and further incubated for 3 days in presence of 25 uM SKF-525A and measured on day 11 post-infection by Celltiter-Glo assay; type: cell-based; conditions: 10000 µM
[2] = target: T1, Cytochrome P450 3A4 (Homo sapiens, UniProt P08684); test: (§2) Inhibition of CYP3A4 in HBV-infected human HepaRG cells at 0.2 to 20 mM using luciferin-IPA as substrate treated for 1 hr on day 5 post-infection followed by removal of media and supplemented with fresh media and further incubated for 3 days then followed by treatment for 1 hr on day 8 post-infection followed by removal of media and supplemented with fresh media and further incubated for 3 days and measured on day 11 post-infection by P450-Glo chemiluminescent assay; type: ADME, tissue-based; conditions: 20000 µM, dose 0.2-20 mM
[3] = target: T2, CYP2C9 (Homo sapiens, UniProt P11712); test: (§3) Inhibition of CYP2C9 in HBV-infected human HepaRG cells at 10 mM using luciferin-H as substrate treated for 1 hr on day 5 post-infection followed by removal of media and supplemented with fresh media and further incubated for 3 days then followed by treatment for 1 hr on day 8 post-infection followed by removal of media and supplemented with fresh media and further incubated for 3 days in presence of 50 uM SKF-525A and measured on day 11 post-infection by P450-Glo chemiluminescent assay relative to control; type: ADME, tissue-based; conditions: probe luciferin-H, with SKF-525A 50 uM
[4] = target: T3, CYP3A4 (Homo sapiens, UniProt P08684); test: (§4) Inhibition of CYP3A4 in HBV-infected human HepaRG cells at 10 mM using luciferin-IPA as substrate treated for 1 hr on day 5 post-infection followed by removal of media and supplemented with fresh media and further incubated for 3 days by P450-Glo chemiluminescent assay relative to control; type: ADME, tissue-based; conditions: probe luciferin-IPA
[5] = target: T3, CYP3A4; test: as §4, with “days in presence of 50 uM SKF-525A” for “days”; type: ADME, tissue-based; conditions: probe luciferin-IPA, with SKF-525A 50 uM
[6] = target: T3, CYP3A4; test: as §2, with “10” for “0.2 to 20”, “assay relative to control” for “assay”; type: ADME, tissue-based; conditions: probe luciferin-IPA
[7] = target: T4, CYP1A2 (Homo sapiens, UniProt P05177); test: as §3, with “CYP1A2” for “CYP2C9”, “luciferin-1A2” for “luciferin-H”, “days” for “days in presence of 50 uM SKF-525A”; type: ADME, tissue-based; conditions: probe luciferin-1A2
T4 sequence (P05177 whole entry): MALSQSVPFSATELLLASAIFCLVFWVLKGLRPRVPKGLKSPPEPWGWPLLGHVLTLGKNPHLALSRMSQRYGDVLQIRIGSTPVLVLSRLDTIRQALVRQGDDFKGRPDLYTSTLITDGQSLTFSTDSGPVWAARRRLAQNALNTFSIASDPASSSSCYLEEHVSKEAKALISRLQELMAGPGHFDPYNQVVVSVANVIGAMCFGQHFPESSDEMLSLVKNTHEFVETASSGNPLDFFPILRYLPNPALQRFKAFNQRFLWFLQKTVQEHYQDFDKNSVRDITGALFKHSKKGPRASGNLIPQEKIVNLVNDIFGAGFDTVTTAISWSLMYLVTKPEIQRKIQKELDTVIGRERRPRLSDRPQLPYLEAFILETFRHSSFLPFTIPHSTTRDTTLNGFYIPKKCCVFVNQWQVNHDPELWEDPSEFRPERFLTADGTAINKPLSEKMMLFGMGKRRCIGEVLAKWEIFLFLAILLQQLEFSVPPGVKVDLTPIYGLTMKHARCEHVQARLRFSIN

[8] = target: T4, CYP1A2; test: as §4, with “CYP1A2” for “CYP3A4”, “luciferin-1A2” for “luciferin-IPA”, “days in presence of 50 uM SKF-525A” for “days”; type: ADME, tissue-based; conditions: probe luciferin-1A2, with SKF-525A 50 uM
[9] = target: T4, CYP1A2; test: Inhibition of CYP1A2 in HBV-infected human HepaRG cells at 10 mM using luciferin-1A2 as substrate treated for 1 hr on day 5 post-infection followed by removal of media and supplemented with fresh media and further incubated for 3 days by P450-Glo chemiluminescent assay relative to control; type: ADME, tissue-based; conditions: probe luciferin-1A2
[10] = target: T5, Cytochrome P450 2C9 (Homo sapiens, UniProt P11712); test: as §2, with “CYP2C9” for “CYP3A4”, “primary hepatocytes” for “HepaRG”, “luciferin-H” for “luciferin-IPA”; type: ADME, tissue-based, Primary hepatocyte; conditions: 20000 µM, dose 0.2-20 mM
[11] = target: T1, Cytochrome P450 3A4; test: as §2, with “primary hepatocytes” for “HepaRG cells”; type: ADME, tissue-based, Primary hepatocyte; conditions: 20000 µM, dose 0.2-20 mM
[12] = system: Hepatitis B virus; test: (§5) Antiviral activity against Hepatitis B virus infected in human primary hepatocytes assessed as reduction in HbsAg secretion level at 10 mM treated for 1 hr on day 5 post-infection followed by removal of media and supplemented with fresh media and further incubated for 3 days then followed by treatment for 1 hr on day 8 post-infection followed by removal of media and supplemented with fresh media and further incubated for 3 days in presence of 50 uM SKF-525A and measured on day 11 post-infection by chemiluminescence immunostaining assay relative to control; type: functional, organism-based; conditions: Primary hepatocyte
[13] = system: Hepatocyte; test: as §1, with “of 50” for “of 25”, “assay relative to control” for “assay”; type: cell-based
[14] = target: T2, CYP2C9; test: Inhibition of CYP2C9 in HBV-infected human HepaRG cells at 10 mM using luciferin-H as substrate treated for 1 hr on day 5 post-infection followed by removal of media and supplemented with fresh media and further incubated for 3 days in presence of 50 uM SKF-525A by P450-Glo chemiluminescent assay relative to control; type: ADME, tissue-based; conditions: probe luciferin-H, with SKF-525A 50 uM
[15] = target: T2, CYP2C9; test: Inhibition of CYP2C9 in HBV-infected human HepaRG cells at 10 mM using luciferin-H as substrate treated for 1 hr on day 5 post-infection followed by removal of media and supplemented with fresh media and further incubated for 3 days by P450-Glo chemiluminescent assay relative to control; type: ADME, tissue-based; conditions: probe luciferin-H
[16] = target: T4, CYP1A2; test: as §3, with “CYP1A2” for “CYP2C9”, “luciferin-1A2” for “luciferin-H”; type: ADME, tissue-based; conditions: probe luciferin-1A2, with SKF-525A 50 uM
[17] = target: T2, CYP2C9; test: as §3, with “days” for “days in presence of 50 uM SKF-525A”; type: ADME, tissue-based; conditions: probe luciferin-H
[18] = system: Hepatitis B virus; test: as §5, with “25” for “50”, “assay” for “assay relative to control”; type: functional, Primary hepatocyte; parameters: scale not given: the % may be the effect or the level left
[19] = target: T5, Cytochrome P450 2C9; test: as §2, with “CYP2C9” for “CYP3A4”, “luciferin-H” for “luciferin-IPA”; type: ADME, tissue-based; conditions: 20000 µM, dose 0.2-20 mM
[20] = system: Hepatitis B virus; test: as §5, with “in human HepaRG cells assessed as” for “in human primary hepatocytes assessed as”, “for 3 B37days then followed” for “for 3 days then followed”, “50 uM SKF-525Aand measured on” for “50 uM SKF-525A and measured on”, “immunostaining assay” for “immunostaining assay relative to control”; type: functional, organism-based
[21] = system: HepaRG; test: as §1, with “human HepaRG cells” for “human primary hepatocytes”, “of 50” for “of 25”; type: cell-based; conditions: 10000 µM
[22] = target: T6, Cytochrome P450 1A2 (Homo sapiens, UniProt P05177); test: as §2, with “CYP1A2” for “CYP3A4”, “primary hepatocytes” for “HepaRG cells”, “luciferin-1A2” for “luciferin-IPA”; type: ADME, tissue-based; conditions: heparg, 20000 µM, dose 0.2-20 mM
T6 sequence (P05177 whole entry): T4 sequence (P05177 whole entry)

[23] = target: T3, CYP3A4; test: as §3, with “CYP3A4” for “CYP2C9”, “luciferin-IPA” for “luciferin-H”; type: ADME, tissue-based; conditions: probe luciferin-IPA, with SKF-525A 50 uM
[24] = system: HepaRG; test: as §1, with “HepaRG cells” for “primary hepatocytes”, “0.2 to 20” for “10”, “days” for “days in presence of 25 uM SKF-525A”; type: cell-based; conditions: 20000 µM, dose 0.2-20 mM
[25] = target: T6, Cytochrome P450 1A2; test: as §2, with “CYP1A2” for “CYP3A4”, “luciferin-1A2” for “luciferin-IPA”; type: ADME, tissue-based; conditions: 20000 µM, dose 0.2-20 mM

T3 sequence (P08684 whole entry): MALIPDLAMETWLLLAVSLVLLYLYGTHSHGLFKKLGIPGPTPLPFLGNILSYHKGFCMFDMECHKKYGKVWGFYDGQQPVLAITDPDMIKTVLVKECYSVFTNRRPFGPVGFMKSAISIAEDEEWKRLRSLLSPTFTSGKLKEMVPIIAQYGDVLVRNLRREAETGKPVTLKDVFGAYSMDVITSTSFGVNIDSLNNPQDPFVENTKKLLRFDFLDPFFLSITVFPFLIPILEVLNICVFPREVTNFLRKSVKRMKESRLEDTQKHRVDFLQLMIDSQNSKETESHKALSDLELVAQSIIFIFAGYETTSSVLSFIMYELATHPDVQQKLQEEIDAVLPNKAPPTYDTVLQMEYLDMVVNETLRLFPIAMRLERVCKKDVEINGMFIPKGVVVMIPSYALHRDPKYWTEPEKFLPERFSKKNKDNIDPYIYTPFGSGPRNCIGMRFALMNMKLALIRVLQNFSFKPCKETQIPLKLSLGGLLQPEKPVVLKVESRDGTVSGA
T2 sequence (P11712 whole entry): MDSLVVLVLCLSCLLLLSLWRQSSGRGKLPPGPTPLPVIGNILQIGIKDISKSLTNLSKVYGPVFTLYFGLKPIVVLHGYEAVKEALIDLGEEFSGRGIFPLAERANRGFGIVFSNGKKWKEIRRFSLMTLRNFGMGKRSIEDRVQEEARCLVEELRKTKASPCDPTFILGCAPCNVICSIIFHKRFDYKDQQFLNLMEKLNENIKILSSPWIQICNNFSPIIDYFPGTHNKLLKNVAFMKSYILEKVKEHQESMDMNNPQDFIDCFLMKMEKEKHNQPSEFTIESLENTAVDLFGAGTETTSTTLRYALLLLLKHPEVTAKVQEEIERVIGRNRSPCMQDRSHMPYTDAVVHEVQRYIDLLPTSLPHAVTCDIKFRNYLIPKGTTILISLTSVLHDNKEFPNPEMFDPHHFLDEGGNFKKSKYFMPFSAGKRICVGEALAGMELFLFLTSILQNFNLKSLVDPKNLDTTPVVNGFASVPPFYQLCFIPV
T1 sequence (P08684 whole entry): as the sequence (P08684 whole entry) above
T5 sequence (P11712 whole entry): as the sequence (P11712 whole entry) above

Which results are given for `Nn1nnc2ccccc21`?
Activity [1]: Non-Toxic; inhibition (INH) [2]: Active; inhibition at 1 h, 10000 µM [3]: 82.1%; inhibition at 1 h, 10000 µM [4]: 9.6%; inhibition at 1 h, 10000 µM [5]: 83.3%; inhibition at 1 h, 50 µM [6]: 87.8%; inhibition at 1 h, 10000 µM [7]: 91%; inhibition at 1 h, 10000 µM [8]: 39.2%; inhibition at 1 h, 10000 µM [9]: 37.1%; inhibition (INH) [10]: Active; inhibition (INH) [11]: Active; Activity [12]: inactive; Activity [13]: 10%; inhibition at 1 h, 10000 µM [14]: 36.9%; inhibition at 1 h, 10000 µM [15]: -9.4%; inhibition at 1 h, 10000 µM [16]: 88.8%; inhibition at 1 h, 10000 µM [17]: 67.5%; Activity [18]: 20%; inhibition (INH) [19]: Active; Activity [20]: inactive; Activity [21]: Non-Toxic; inhibition (INH) [22]: Active; inhibition at 2 h, 10000 µM [23]: 90.3%; Activity [24]: Non-Toxic; inhibition (INH) [25]: Active
